In patent publication US9113629B2, “4-amino-6-(4-substituted-phenyl)-picolinates and 6-amino-2-(4-substituted-phenyl)-pyrimidine-4-carboxylates and their use as herbicides” (DOW AGROSCIENCES LLC, priority 2013, dated 2015):

Legend:
Experiment in all cases: Post-emergent Test III, herbicidal activity in wheat and barley
Format in all cases: in vivo
[1] = tested on: CIRAR: Canada thistle (Cirsium arvense); settings: Table 8, 21 d; for pest or weed control at 35 g/ha / pest or weed control at 70 g/ha / pest or weed control at 140 g/ha: Cirsium arvense, post-emergence, 504 h, post-emergent, read-out: Visual Growth Reduction (%) 21 Days After Application CIRAR; for pest or weed control at 35 g/ha: 35 g ai/ha; for pest or weed control at 70 g/ha: 70 g ai/ha; for pest or weed control at 140 g/ha: 140 g ai/ha; for GR50 CIRAR: dose for 50 percent growth reduction; for GR50 CIRAR / GR80 CIRAR: probit analysis; for GR80 CIRAR: dose for 80 percent growth reduction
In short: (§1)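 GR20, GR50, GR80 and GR90 come from probit analysis of visual injury scores (0 = none, 100 = complete kill) taken 21 d after treatment. Foliar application was by track sprayer delivering 187 L/ha at five rates, from high down to 1/16×, onto greenhouse plants at the 2–3 leaf stage, with solvent-blank controls.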

[2] = tested on: GALAP: cleavers (Galium aparine); settings: Table 8, 21 d; for pest or weed control at 35 g/ha / pest or weed control at 70 g/ha / pest or weed control at 140 g/ha: Galium aparine, post-emergence, 504 h, post-emergent, read-out: Visual Growth Reduction (%) 21 Days After Application GALAP; for pest or weed control at 35 g/ha: 35 g ai/ha; for pest or weed control at 70 g/ha: 70 g ai/ha; for pest or weed control at 140 g/ha: 140 g ai/ha; for GR50 GALAP: dose for 50 percent growth reduction; for GR50 GALAP / GR80 GALAP: probit analysis; for GR80 GALAP: dose for 80 percent growth reduction
In short: as §1

[3] = tested on: SASKR: Russian thistle (Salsola iberica); settings: Table 8, 21 d; for pest or weed control at 35 g/ha / pest or weed control at 70 g/ha / pest or weed control at 140 g/ha: Salsola tragus, post-emergence, 504 h, post-emergent, read-out: Visual Growth Reduction (%) 21 Days After Application SASKR; for pest or weed control at 35 g/ha: 35 g ai/ha; for pest or weed control at 70 g/ha: 70 g ai/ha; for pest or weed control at 140 g/ha: 140 g ai/ha; for GR50 SASKR: dose for 50 percent growth reduction; for GR50 SASKR / GR80 SASKR: probit analysis; for GR80 SASKR: dose for 80 percent growth reduction
In short: as §1

[4] = tested on: VIOSS: wild pansy (Viola tricolor), field violet (Viola arvensis); settings: Table 8, 21 d; for GR50 VIOSS: dose for 50 percent growth reduction; for GR50 VIOSS / GR80 VIOSS: probit analysis; for GR80 VIOSS: dose for 80 percent growth reduction; for pest or weed control at 35 g/ha / pest or weed control at 70 g/ha / pest or weed control at 140 g/ha: Viola tricolor, post-emergence, 504 h, post-emergent, read-out: Visual Growth Reduction (%) 21 Days After Application VIOSS; for pest or weed control at 35 g/ha: 35 g ai/ha; for pest or weed control at 70 g/ha: 70 g ai/ha; for pest or weed control at 140 g/ha: 140 g ai/ha
In short: as §1

Structure (SMILES) | pest or weed control at 35 g/ha [1] | pest or weed control at 70 g/ha [1] | pest or weed control at 140 g/ha [1] | GR50 CIRAR [1] | GR80 CIRAR [1] | pest or weed control at 35 g/ha [2] | pest or weed control at 70 g/ha [2] | pest or weed control at 140 g/ha [2] | GR50 GALAP [2] | GR80 GALAP [2] | pest or weed control at 35 g/ha [3] | pest or weed control at 70 g/ha [3] | pest or weed control at 140 g/ha [3] | GR50 SASKR [3] | GR80 SASKR [3] | GR50 VIOSS [4] | GR80 VIOSS [4] | pest or weed control at 35 g/ha [4] | pest or weed control at 70 g/ha [4] | pest or weed control at 140 g/ha [4]
COC(=O)c1nc(-c2ccc(C#N)c(F)c2)c(F)c(N)c1Cl [Compound 135, methyl 4-amino-3-chloro-6-(4-cyano-3-fluorophenyl)-5-fluoropicolinate] | 85 to 94% | 85 to 94% | 85 to 94% | 1 g ai/ha | 13 g ai/ha | 60 to 74% | 95 to 100% | 95 to 100% | 12 g ai/ha | 38 g ai/ha | 60 to 74% | 60 to 74% | 75 to 84% | 3 g ai/ha | >140 g ai/ha | 23 g ai/ha | >140 g ai/ha | 60 to 74% | 60 to 74% | 75 to 84%
Nc1c(Cl)c(C(=O)O)nc(-c2ccc(I)c(F)c2)c1Cl [Compound 145, 4-Amino-3,5-dichloro-6-(3-fluoro-4-iodophenyl)picolinic acid] | 95 to 100% | 85 to 94% | 95 to 100% | 2 g ai/ha | 7 g ai/ha | 45 to 59% | 75 to 84% | 95 to 100% | 18 g ai/ha | 54 g ai/ha | 60 to 74% | 75 to 84% | 85 to 94% |  | 79 g ai/ha | >140 g ai/ha | >140 g ai/ha | 0 to 29% | 0 to 29% | 30 to 44%
COC(=O)c1nc(-c2ccc(Br)c(F)c2)nc(N)c1OC [Compound 171, Methyl 6-amino-2-(4-bromo-3-fluorophenyl)-5-methoxypyrimidine-4-carboxylate] | 60 to 74% | 60 to 74% |  | 17 g ai/ha | 80 g ai/ha | 85 to 94% | 95 to 100% |  |  | 23 g ai/ha | 60 to 74% | 75 to 84% |  | 21 g ai/ha | 67 g ai/ha | 5 g ai/ha | 10 g ai/ha | 95 to 100% | 95 to 100% | 
